ChEMBL document CHEMBL1201862, “PubChem BioAssay data set” (2004)
Calls of active or inactive are those of the source.

How the values were obtained:
Cytochrome P450 1A2 [1] = target: T1, Cytochrome P450 1A2 (Homo sapiens, UniProt P05177);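 note: PubChem cytochrome P450 panel assay, CYP1A2 panel member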
T1 sequence (P05177 whole entry): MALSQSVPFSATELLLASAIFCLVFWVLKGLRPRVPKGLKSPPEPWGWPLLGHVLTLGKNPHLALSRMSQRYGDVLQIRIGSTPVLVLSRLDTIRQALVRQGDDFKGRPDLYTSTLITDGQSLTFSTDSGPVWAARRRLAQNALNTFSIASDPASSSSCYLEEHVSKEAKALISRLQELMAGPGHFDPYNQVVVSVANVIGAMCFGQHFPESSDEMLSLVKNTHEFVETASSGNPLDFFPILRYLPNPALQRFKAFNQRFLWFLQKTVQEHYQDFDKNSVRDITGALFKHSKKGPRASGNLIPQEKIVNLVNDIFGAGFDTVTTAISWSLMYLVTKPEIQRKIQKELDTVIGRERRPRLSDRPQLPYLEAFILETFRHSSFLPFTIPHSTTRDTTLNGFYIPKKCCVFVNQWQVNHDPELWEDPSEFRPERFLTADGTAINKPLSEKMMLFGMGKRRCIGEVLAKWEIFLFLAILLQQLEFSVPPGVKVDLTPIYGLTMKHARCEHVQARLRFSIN

Cytochrome P450 3A4 = Cytochrome P450 3A4 (Homo sapiens, UniProt P08684);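 note: CYP3A4 tested as one member of a cytochrome P450 panel screen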
Cytochrome P450 3A4, sequence (P08684 whole entry): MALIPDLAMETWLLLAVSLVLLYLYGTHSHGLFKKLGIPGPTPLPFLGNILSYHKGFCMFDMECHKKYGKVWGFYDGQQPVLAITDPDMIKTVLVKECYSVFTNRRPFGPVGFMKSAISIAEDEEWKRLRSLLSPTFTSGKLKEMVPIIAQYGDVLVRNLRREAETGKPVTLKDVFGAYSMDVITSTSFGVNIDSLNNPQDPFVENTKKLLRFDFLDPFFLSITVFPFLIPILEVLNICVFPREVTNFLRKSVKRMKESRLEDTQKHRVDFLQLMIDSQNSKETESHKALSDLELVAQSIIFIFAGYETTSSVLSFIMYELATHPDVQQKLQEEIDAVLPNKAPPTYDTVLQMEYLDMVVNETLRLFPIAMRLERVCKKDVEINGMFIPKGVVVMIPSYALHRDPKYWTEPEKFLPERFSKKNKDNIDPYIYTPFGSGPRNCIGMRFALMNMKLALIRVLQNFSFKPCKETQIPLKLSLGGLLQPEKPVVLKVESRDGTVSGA

Cytochrome P450 1A2 [2] = target: T1, Cytochrome P450 1A2; remark: listed apart in the source
A-375 = assay: MITF: Counter assay: A375 proliferation Measured in Cell-Based System Using Plate Reader - 2084-03_Inhibitor_Dose_DryPowder_Activity. [Related pubchem assays (depositor defined):AID488944]; assay type: functional; conditions: Homo sapiens
[3] = A Cell Based Secondary Assay To Explore Cytotoxicity of Compounds that Sensitize Mycobacterium Tuberculosis to Beta-Lactam Antibiotics.; assay type: functional
[4] = target: T2, Microphthalmia-associated transcription factor (Homo sapiens, UniProt O75030); assay: TRPM1 promoter luciferase signal decrease, dose response, MITF inhibitor project, cell-based, SK-MEL-5, cherry-picked, set 3 (AID 493073); assay type: functional
T2 sequence (O75030 whole entry): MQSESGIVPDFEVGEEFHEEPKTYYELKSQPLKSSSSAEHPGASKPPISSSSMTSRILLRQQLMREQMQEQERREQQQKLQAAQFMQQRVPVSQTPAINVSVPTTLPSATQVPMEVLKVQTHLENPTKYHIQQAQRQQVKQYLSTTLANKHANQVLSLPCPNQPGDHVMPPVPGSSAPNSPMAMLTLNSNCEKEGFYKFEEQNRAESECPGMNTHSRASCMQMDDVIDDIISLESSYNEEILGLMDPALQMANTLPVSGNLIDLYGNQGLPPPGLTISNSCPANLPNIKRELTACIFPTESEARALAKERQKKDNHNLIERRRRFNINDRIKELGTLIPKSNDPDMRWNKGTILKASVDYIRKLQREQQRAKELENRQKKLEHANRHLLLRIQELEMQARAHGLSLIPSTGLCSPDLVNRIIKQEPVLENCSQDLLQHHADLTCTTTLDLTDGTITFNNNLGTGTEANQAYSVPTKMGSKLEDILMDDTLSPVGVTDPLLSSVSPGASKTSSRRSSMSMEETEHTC

[5] = Luminescence Cell-Based Dose Confirmation HTS to Identify Activators of 5'UTR Stem-Loop Driven Alpha-Synuclein mRNA Translation in H4 Neuroglioblastoma Cells. [Related pubchem assays: 1829 (Project Summary), 1814 (Primary HTS)]; assay type: functional
H4 = assay: Luminescence Cell-Based Dose Response HTS to Identify Activators of 5'UTR Stem-Loop Driven Prion Protein mRNA Translation in H4 Neuroglioblastoma Cells. [Related pubchem assays: 1829 (Project Summary), 1814 (Primary HTS)]; assay type: functional; conditions: Homo sapiens
[6] = target: T3, Heat shock factor protein 1 (Mus musculus, UniProt P38532); assay: inhibition of MG132-induced HSE-luciferase signal, confirmation, cell-based, NIH3T3, luminescence, dose retest (AID 2382); assay type: functional;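 note: NIH3T3 fibroblasts with HSF1-driven luciferase reporter stressed by proteasome inhibitor MG132; luminescence from HSF1-driven luciferase expression after 8 hours of MG132 stress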
T3 sequence (P38532 whole entry): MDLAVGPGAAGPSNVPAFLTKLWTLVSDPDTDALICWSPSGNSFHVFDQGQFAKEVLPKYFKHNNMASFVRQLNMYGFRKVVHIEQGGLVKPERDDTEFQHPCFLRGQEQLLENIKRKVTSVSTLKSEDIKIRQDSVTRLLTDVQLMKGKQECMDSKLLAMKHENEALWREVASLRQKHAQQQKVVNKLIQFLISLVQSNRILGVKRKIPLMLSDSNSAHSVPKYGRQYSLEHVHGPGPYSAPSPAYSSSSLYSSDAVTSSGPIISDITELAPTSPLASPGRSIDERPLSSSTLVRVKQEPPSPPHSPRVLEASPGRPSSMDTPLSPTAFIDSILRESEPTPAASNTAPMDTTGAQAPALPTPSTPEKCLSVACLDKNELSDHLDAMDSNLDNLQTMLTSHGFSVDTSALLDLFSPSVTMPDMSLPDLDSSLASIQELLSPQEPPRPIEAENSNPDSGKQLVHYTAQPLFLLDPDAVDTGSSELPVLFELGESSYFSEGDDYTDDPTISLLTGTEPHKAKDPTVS

Jurkat = assay: antigen receptor-induced NF-kB inhibitors, dose response, Jurkat, luciferase reporter, luminescence, B- and T-cell (AID 489004); assay type: functional, cell-based; conditions: Homo sapiens;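 note: NF-kB luciferase reporter Jurkat cells stimulated with PMA plus ionomycin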
[7] = non-specific cell cytotoxicity, dose response, cytotoxicity control for PAX8 inhibitor project, plate reader, dry powder samples (AID 743021); assay type: functional, cell-based
[8] = human group III sPLA2 inhibitors, dose response, biochemical, QFRET, IC50 (AID 743457);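 note: green fluorescence rise as the enzyme cleaves BODIPY PC-A2 in liposomes; potency for inhibition of the enzyme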
Paired box protein Pax-8 = Paired box protein Pax-8 (Homo sapiens, UniProt Q06710); assay: inhibitors of PAX8-driven TPO luciferase reporter, dose response, RMG-I cells, cherry-pick (AID 687027); assay type: functional, cell-based;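 note: luciferase reporter driven by Pax8 target thyroperoxidase promoter measured by SteadyGlo luminescence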
Paired box protein Pax-8, sequence (Q06710 whole entry): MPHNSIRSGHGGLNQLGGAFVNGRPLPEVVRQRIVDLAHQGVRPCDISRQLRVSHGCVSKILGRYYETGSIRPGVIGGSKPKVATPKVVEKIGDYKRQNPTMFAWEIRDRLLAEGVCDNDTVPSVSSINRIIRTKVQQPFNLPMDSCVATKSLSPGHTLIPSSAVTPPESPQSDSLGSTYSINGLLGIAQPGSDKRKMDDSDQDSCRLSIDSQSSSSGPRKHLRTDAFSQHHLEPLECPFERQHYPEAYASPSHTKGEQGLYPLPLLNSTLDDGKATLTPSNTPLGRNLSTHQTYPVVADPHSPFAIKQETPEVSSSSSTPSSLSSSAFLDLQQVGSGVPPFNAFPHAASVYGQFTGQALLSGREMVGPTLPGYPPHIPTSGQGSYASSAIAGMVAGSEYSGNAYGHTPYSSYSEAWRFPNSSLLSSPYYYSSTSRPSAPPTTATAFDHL

[9] = cytotoxicity in HEK-293T NF-kB-Luc cells, dose response, cytotoxicity control for B/T-cell NF-kB inhibitor project, cell-based, uHTS hits (AID 489019); assay type: functional;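 note: IC50 reflects cytotoxicity as loss of cell viability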
[10] = Luminescence Cell-Based Dose Response HTS to Identify Inhibitors of 5'UTR Stem-Loop Driven Prion Protein mRNA Translation in H4 Neuroglioblastoma Cells. [Related pubchem assays: 1827 (Project Summary), 1813 (Primary HTS)]; assay type: functional
Protein RecA = target: T4, Protein RecA (Mycobacterium tuberculosis, UniProt P9WHJ3); assay: Fluorescence Cell-Free Homogeneous Dose Retest to Identify Inhibitors of RecA-Intein Splicing Activity. [Related pubchem assays (depositor defined):AID2097, AID2223, AID489010, AID492950]; assay type: functional
T4 sequence (P9WHJ3 whole entry): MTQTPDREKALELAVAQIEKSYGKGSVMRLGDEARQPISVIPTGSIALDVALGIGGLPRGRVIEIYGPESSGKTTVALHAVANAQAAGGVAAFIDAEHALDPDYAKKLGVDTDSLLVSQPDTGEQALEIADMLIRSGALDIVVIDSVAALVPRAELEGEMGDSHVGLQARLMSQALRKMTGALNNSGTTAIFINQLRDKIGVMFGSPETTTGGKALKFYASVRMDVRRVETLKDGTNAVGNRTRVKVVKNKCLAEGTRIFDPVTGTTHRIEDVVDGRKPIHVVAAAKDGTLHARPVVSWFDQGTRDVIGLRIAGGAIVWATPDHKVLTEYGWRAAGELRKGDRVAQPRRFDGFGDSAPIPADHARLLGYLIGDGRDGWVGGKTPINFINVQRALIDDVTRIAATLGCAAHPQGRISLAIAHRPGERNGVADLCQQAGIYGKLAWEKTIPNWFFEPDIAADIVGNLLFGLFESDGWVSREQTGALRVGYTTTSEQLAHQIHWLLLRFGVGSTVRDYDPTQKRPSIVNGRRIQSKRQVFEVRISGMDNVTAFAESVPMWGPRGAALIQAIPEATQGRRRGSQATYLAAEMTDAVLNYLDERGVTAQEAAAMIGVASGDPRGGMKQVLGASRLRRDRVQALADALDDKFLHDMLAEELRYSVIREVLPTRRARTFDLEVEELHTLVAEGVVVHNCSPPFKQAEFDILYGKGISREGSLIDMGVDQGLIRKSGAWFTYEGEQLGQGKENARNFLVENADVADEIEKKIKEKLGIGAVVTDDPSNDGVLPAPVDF

[11] = inhibitors of SNCA 5'UTR-driven reporter translation, confirmation, H4 neuroglioma cells, luminescence (AID 1988); assay type: functional, cell-based
[12] = target: T5, Replicative DNA helicase DnaB (Mycobacterium tuberculosis, UniProt P9WMR3); assay: DnaB intein splicing inhibitors, dose response, biochemical, cell-free fluorescence (AID 449749); assay type: functional
T5 sequence (P9WMR3 whole entry): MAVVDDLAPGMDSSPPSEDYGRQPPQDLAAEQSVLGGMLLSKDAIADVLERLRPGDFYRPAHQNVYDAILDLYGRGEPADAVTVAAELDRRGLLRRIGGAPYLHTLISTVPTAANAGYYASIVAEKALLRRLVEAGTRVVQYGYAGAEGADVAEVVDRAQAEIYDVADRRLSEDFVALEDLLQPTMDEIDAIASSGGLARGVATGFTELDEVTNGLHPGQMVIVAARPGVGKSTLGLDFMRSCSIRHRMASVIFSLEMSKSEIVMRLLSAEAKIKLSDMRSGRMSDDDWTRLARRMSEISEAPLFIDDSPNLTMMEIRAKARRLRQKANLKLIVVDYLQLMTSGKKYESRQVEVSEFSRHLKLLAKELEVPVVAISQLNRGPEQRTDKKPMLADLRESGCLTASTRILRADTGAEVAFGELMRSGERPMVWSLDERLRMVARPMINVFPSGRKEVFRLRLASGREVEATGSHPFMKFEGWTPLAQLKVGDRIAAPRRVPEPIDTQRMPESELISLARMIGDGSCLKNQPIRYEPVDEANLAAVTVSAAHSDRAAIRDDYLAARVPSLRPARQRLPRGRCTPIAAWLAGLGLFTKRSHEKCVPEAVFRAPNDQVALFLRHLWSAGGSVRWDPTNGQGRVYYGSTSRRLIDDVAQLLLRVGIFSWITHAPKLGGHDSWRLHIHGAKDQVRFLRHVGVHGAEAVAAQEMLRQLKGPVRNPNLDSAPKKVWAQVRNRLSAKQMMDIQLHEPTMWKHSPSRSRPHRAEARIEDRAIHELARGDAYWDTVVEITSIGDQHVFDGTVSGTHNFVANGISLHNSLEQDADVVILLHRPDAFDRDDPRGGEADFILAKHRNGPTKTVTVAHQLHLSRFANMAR

[13] = target: T6, Long-chain-fatty-acid--AMP ligase FadD28 (Mycobacterium tuberculosis, UniProt P9WQ59); assay: Fluorescence polarization aasay to screen for inhibitors that compete for the binding of FadD28 to a bisubstrate Measured in Biochemical System Using Plate Reader - 2147-01_Inhibitor_Dose_CherryPick_Activity.; assay type: functional, Mycobacterium tuberculosis H37Rv
T6 sequence (P9WQ59 whole entry): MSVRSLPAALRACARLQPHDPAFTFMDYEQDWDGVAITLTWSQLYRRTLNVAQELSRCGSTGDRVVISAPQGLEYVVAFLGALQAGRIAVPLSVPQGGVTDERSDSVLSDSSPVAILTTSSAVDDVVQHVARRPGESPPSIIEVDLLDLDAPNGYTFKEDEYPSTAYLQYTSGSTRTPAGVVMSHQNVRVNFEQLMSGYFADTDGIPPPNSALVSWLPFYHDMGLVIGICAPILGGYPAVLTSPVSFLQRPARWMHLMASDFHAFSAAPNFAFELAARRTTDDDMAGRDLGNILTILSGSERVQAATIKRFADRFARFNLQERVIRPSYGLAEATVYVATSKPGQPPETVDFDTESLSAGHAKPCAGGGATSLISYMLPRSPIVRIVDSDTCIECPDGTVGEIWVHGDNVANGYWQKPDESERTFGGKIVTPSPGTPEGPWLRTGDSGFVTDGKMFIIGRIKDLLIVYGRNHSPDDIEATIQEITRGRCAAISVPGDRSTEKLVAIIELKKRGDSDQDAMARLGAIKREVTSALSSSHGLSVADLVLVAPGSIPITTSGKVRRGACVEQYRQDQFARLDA

[14] = inhibitors of firefly luciferase expression or activity, dose response, H4 neuroglioma cells, luminescence (AID 1990); assay type: functional, cell-based

CCC(=O)O[C@H](CC(=O)[O-])C[N+](C)(C)C
AC50 (Cytochrome P450 1A2 [1]): inconclusive

Cn1ncc2c(Nc3cccc(C(=O)O)c3)ncnc21
AC50 (Cytochrome P450 3A4): inconclusive

COC(=O)N1CCC2(CC1)CN(c1ccc(-c3ccccc3)cc1)C2
AC50 (Cytochrome P450 1A2 [2]): 1.26 µM (inconclusive) | AC50 (Cytochrome P450 3A4): inconclusive

O=C(CCl)N(c1ccccc1)C1CCS(=O)(=O)C1 (stereo not given)
AC50 (A-375): 27.7 µM (active) | CC50 [3]: 6.82 µM (active) | AC50 [4]: 9.35 µM (active) | EC50 [5]: > 120 µM (not active) | EC50 (H4): > 120 µM (not active)

C/N=c1\scc(-c2ccccc2F)n1/N=C/c1ccc[nH]1
EC50 [6]: < 0.16 µM (active) | IC50 (Jurkat): 0.38 µM (active) | AC50 [7]: 44.3 µM (active) | IC50 [8]: 50.6 µM (inactive) | AC50 (Paired box protein Pax-8): < 0.26 µM (active) | AC50 [4]: 0.019 µM (active) | IC50 [9]: > 80 µM (inactive)

COc1ccc(CCN(C)CCC[C@@](C#N)(c2cc(OC)c(OC)c(OC)c2)C(C)C)cc1OC
AC50 (Cytochrome P450 1A2 [1]): inactive

O=C1C([N-]S(=O)(=O)c2cccs2)=C([n+]2ccccc2)C(=O)c2ccccc21
AC50 (A-375): 25.5 µM (active) | EC50 [10]: 14.2 µM (active) | EC50 (Protein RecA): 6.59 µM (active) | EC50 [11]: > 120 µM (not active) | AC50 [12]: 10.2 µM (active) | AC50 [4]: 1.07 µM (active) | AC50 [13]: > 100 µM (inactive) | EC50 [14]: 12.9 µM (active)
